≈ marks a conversion by molar mass, not a printed value. Where two headings read alike, the source gives them in different places.

What all share (assay type): physicochemical
Data set [1] in a line: dissolution in the oil phase in the preparation of a cream. The settings on record: for time to dissolve in the oil phase: preparation of a cream. An excerpt: The availability of well-defined crystalline forms of the compound of formula I is therefore particularly indicated for use in the preparation of galenical forms of the compound where it is indicated to overcome the above disadvantages, such as in the preparation of topical forms, e.g. creams, emulsions and ointments where it is desired to include the compound normally in dissolved state but under carefully controlled conditions. Thus in the preparation of a cream, it has been observed that Form A dissolves in the oil phase in about 10 minutes, whereas for Form B it takes about 6 hours.
(§1) During the preparation of these preformulations, it is observed that the solving speed of crystal Form B in the oily phase of the cream is much slower than that of crystal Form A. Immediately after manufacturing, the forms are investigated and no remaining crystals are observed.

Data set [2] is described as follows: solubilization of Forms A and B in 1% creams; examination for crystals after manufacturing and storage. To be noted: room temperature; estimated. Here is the method: a) The solubility of Form A in a cream formulation is estimated to be about 1% at room temperature. In the manufacturing of cream, the drug substance is completely dissolved in the oily phase at 60-75°. To assess whether and after which storage time part of the drug substance dissolved will crystallize from the 1% cream, a series of batches is examined for crystals.
The drug substance used in the batches and preformulations mentioned above contained 100% Form A.
b) To assess whether drug substance containing Form B can be completely dissolved in the manufacturing of cream and to evaluate the long-term crystallization behaviour, several preformulations (cream, 1%) containing 0%, 1%, 5% and 10% Form B relative to the total content of compound of formula I are manufactured and put on stability testing at different temperatures.
as §1
To get information about the long-term crystallization behaviour of these forms, the stability samples are further investigated after 6 weeks, 3, 6 and 9 months storage.

Data set [3] in a line: solubility in the oil phase of cream (oleyl alcohol/miglyol 812 4:6).
Data set [4] in a line: hygroscopicity (uptake determined by thermogravimetry). As to the method:
hygroscopicity (uptake determined by thermogravimetry): 1.49% (1 day, 92% r.h.); 1.78% (1 week, 25° C., 75% r.h.); hygroscopicity(uptake determined by thermogravimetry): 1 day, 92% r.h. and 1 week, 25° C., 75% r.h.: none;

Data set [5] is described as follows: solubility of the crystal forms in water and organic solvents.
A short description of data set [6]: thermodynamic stability of the crystal forms. The settings on record: compared with Form A.

Take `CC[C@@H]1/C=C(\C)C[C@H](C)C[C@H](OC)[C@H]2O[C@@](O)(C(=O)C(=O)N3CCCC[C@H]3C(=O)O[C@H](/C(C)=C/[C@@H]3CC[C@H](Cl)[C@H](OC)C3)[C@H](C)[C@@H](O)CC1=O)[C@H](C)C[C@@H]2OC` [Form A, 33-epichloro-33-desoxyascomycin]: in data set [1], the “time to dissolve in the oil phase” value was “about 10 minutes”. Moreover, the “solubility in a cream formulation” value in data set [2] was “about 1%”. Further, in data set [3], the “solubility in the oil phase of cream” value is recorded as 2.49%. Further, the “hygroscopicity (uptake determined by thermogravimetry)” value (“hygroscopicity” for short) is given as 1.78% in data set [4] (1 week, 25° C., 75% r.h.) and 1.49% in data set [4] (1 day, 92% r.h.). For the same molecule, the solubility in data set [5] (acetone, 25 °C, organic solvent or mixture, at 25° C., read-out: solubility in acetone) is more than 50 mg/mL; in data set [5] (acetonitrile, 25 °C, organic solvent or mixture, at 25° C., read-out: solubility in acetonitrile), more than 50 mg/mL; in data set [5] (ethanol, 25 °C, organic solvent or mixture, at 25° C., read-out: solubility in ethanol), more than 50 mg/mL; in data set [5] (ethyl acetate, 5 °C, organic solvent or mixture, at 5° C., read-out: solubility in ethyl acetate), more than 100 mg/mL; in data set [5] (ethyl acetate, 25 °C, organic solvent or mixture, at 25° C., read-out: solubility in ethyl acetate) it was more than 50 mg/mL; in data set [5] (isopropanol, 25 °C, organic solvent or mixture, at 25° C., read-out: solubility in isopropanol) it was more than 50 mg/mL. Besides, in data set [5] (methanol, 25 °C, organic solvent or mixture, at 25° C., read-out: solubility in methanol), the solubility is more than 50 mg/mL. Also, in data set [5] (at 5° C.), the solubility in diethylether is more than 100 mg/mL. Moreover, the “solubility in diisopropyl ether” value in data set [5] (at 5° C.) is more than 100 mg/mL. Besides, the solubility in ethanol in data set [5] (at 5° C.) is more than 100 mg/mL. In data set [5] (at 5° C.), this molecule displayed a solubility in hexane of less than 10 mg/mL. The same molecule registered a solubility in methanol in data set [5] (at 5° C.) of more than 100 mg/mL. For the same molecule, the solubility in water result in data set [5] (at 5° C., result in words) is “insoluble”; in data set [5] (at 25° C.), less than 1 mg/mL.
Consider `CC[C@@H]1/C=C(\C)C[C@H](C)C[C@H](OC)[C@H]2O[C@@](O)(C(=O)C(=O)N3CCCC[C@H]3C(=O)O[C@H](/C(C)=C/[C@@H]3CC[C@H](Cl)[C@H](OC)C3)[C@H](C)[C@@H](O)CC1=O)[C@H](C)C[C@@H]2OC` [Form B, 33-epichloro-33-desoxyascomycin], for which the “solving speed in the oily phase of the cream” value in data set [1] (preparation of 1% cream preformulations, compared with Form A) was “much slower”. Also, in data set [1], the “time to dissolve in the oil phase” value was “about 6 hours”. Further, in data set [3], the “solubility in the oil phase of cream” value was 0.37%. For the same molecule, in data set [4] (1 week, 25° C., 75% r.h., result in words), the “hygroscopicity” value is “none”. Further, the “hygroscopicity” value in data set [4] (1 day, 92% r.h., result in words) is listed as “none”. Besides, in data set [5] (at 5° C.), the solubility in diethylether came to 9.3 mg/mL (≈ 11.5 mM), the “solubility in diisopropyl ether” value worked out at 1.9 mg/mL (≈ 2.34 mM), the solubility in ethanol turned out to be 18.1 mg/mL (≈ 22.3 mM) and the “solubility in ethyl acetate” value was more than 50 mg/mL. In data set [5] (at 5° C.), this molecule came in with a solubility in hexane of 0.8 mg/mL (≈ 0.987 mM) and a solubility in methanol of 46.3 mg/mL (≈ 57.1 mM). Moreover, in data set [5] (at 25° C.), the solubility in ethanol was 34.4 mg/mL (≈ 42.4 mM), the “solubility in ethyl acetate” value was more than 50 mg/mL, the solubility in methanol is more than 50 mg/mL and the solubility in water was found to be 0.4 mg/mL (≈ 0.494 mM). In addition, the solubility in data set [5] (diethyl ether, 25 °C, organic solvent or mixture, at 25° C., read-out: solubility in diethyl ether) was 16.3 mg/mL (≈ 20.1 mM). For the same molecule, the solubility in data set [5] (diisopropyl ether, 25 °C, organic solvent or mixture, at 25° C., read-out: solubility in diisopropyl ether) amounted to 3.1 mg/mL (≈ 3.82 mM). The solubility in data set [5] (hexane, 25 °C, organic solvent or mixture, at 25° C., read-out: solubility in hexane) stood at 1.5 mg/mL (≈ 1.85 mM). In addition, the solubility in data set [5] (water, 5 °C, water, at 5° C., read-out: solubility in water) worked out at 0.3 mg/mL (≈ 0.37 mM). Besides, the thermodynamic stability entry in data set [6] was “thermodynamically a more stable form than Form A”.

As a reminder, the solubility is the dissolved amount per volume that the medium holds.

Source of the values: US6423722B1, “Crystalline macrolides and process for their preparation” (Novartis AG, priority 1997, dated 2002).
